Experiment [1] concerns C57BL/6J male mice. Briefly: Portal vein active GLP-1 and total GIP 30 minutes after oral administration of monosaccharides to fasting mice (Example 2). The class given is in vivo. The following applies: 30 minutes after administration, vs saline. The procedure: To the C57BL/6J male mice (9-11 weeks old) having fasted for 16 hours from 18:00 on the day before the experiment, D-psicose at 0.3 g/kg or 1 g/kg, D-tagatose or D-glucose each at 1 g/kg, or saline was orally administered into each stomach at 10:00 AM. The dose of the oral administration was 10 ml/kg. The blood was collected from the portal vein under isoflurane anesthesia 30 minutes after the administration. Note that an anticoagulant (heparin (final concentration: 50 IU/ml)) and peptide degradation suppressors (aprotinin (final concentration: 500 KIU/ml) and vildagliptin (final concentration: 10 μM)) had been added into the sampling syringes in advance. The collected blood was cooled and centrifuged. The blood plasma was stored at −80° C. until the analysis. The quantitative analyses of active GLP-1 and total GIP were conducted using the above-described kits. In addition, as the statistical analyses, a one-way analysis of variance (unpaired) was performed, followed by Dunnett's test using saline as the control. […] Note that, in FIG. 3, * indicates p<0.05, and ** indicates p<0.01. Moreover, numerical values in bar graphs in the figure each indicate the number of experiments.

In the next experiment the test system is healthy subjects. Description: Total GLP-1 blood concentration AUC after single ingestion by healthy subjects (Example 6). The following applies: humans, fasting. The format is in vivo. The procedure: After setting a termination period for one week or more in advance, 200 ml of water (control beverage) or D-psicose at 5 g/200 ml (D-psicose: 0.07 to 0.11 g/kg body weight), 10 g/200 ml (D-psicose: 0.14 to 0.22 g/kg body weight), or 15 g/200 ml (test beverage) (D-psicose: 0.21 to 0.33 g/kg body weight) each at a single dose was randomly ingested by six healthy subjects (three men and three women. The body weights: 53.3±7.4 kg). In the night before the day when the control beverage or the test beverage was ingested (test day), a designated dinner was ingested. After 21:00 in the night until 9:00 AM on the test day, the ingestion of foods and beverages excluding water and tea beverages was prohibited. As the designated diet, any menu (curry, chicken and egg bowl, beef bowl, Chinese rice bowl) was selectable which hardly contain substances such as dietary fibers, lactic acid bacteria, and fermentative saccharides utilizable by intestinal bacteria for the fermentations. […] The total GLP-1 amount in the centrifuged blood plasma was measured using the product manufactured by Merck KGaA: “Multi Species GLP-1 Total ELISA.” Note that the subjects were made to keep regular lifestyles and avoid excessive exercising, eating, and drinking during the test period of approximately one month, and spend a time quietly in house during the test.

In experiment [2] the test system is C57BL/6J male mice. Description: Amount of diet ingested after oral D-psicose with or without GLP-1 receptor inhibitor Ex-9 (Example 3). The class given is in vivo. The following applies: vs control group. The procedure:
The C57BL/6J male mice (9-11 weeks old) were preliminarily grown in separate cages for one week or more, and habituated to the growth and experimental environment through training by the experimenter. After the fasting for 16 hours from 18:00 on the day before the experiment, saline or a GLP-1 receptor inhibitor (Exendin-9, Ex-9, 200 nmol/kg) was intraperitoneally administered from 9:45. Immediately thereafter, saline or D-psicose at 1 g/kg was orally administered into each stomach. The doses of the intraperitoneal administration and the oral administration were respectively 5 ml/kg and 10 ml/kg. From 10:00, the mice were fed with Diet CE-2 (common mouse diet with well-balanced nutrients, manufactured by CLEA Japan, Inc.) ad lib. After 0.5 hours, 1 hour, 2 hours, 3 hours, and 6 hours, the amounts of the diet ingested were measured over time. Each amount of the diet ingested was calculated as the amount of energy ingested (kcal), given that 1 g of D-psicose orally administered into the stomach is 0 kcal, and 1 g of Diet CE-2 is 3.45 kcal. As the statistical analyses, a one-way analysis of variance (unpaired) was performed on the results at the respective time points, and multiple comparisons were performed by Tukey's test among all the groups. […] Note that, in FIG. 4, * indicates p<0.05, and ** indicates p<0.01.

Experiment [3] deals with C57BL/6J male mice. Description: Amount of diet ingested after oral D-psicose or D-tagatose (Example 4). The following applies: 1 g/kg oral, vs control group (saline). The class given is in vivo. The procedure:
The C57BL/6J male mice (7-11 weeks old) were preliminarily grown in separate cages for one week or more, and habituated to the growth and experimental environment through training by the experimenter. After the fasting for 16 hours from 18:00 on the day before the experiment, saline, D-psicose at 1 g/kg, or D-tagatose at 1 g/kg was orally administered into each stomach from 9:50. The doses were each 10 ml/kg. From 10:00, the mice were fed with Diet CE-2 ad lib. After 1 hour, 2 hours, and 6 hours, the amounts of the diet ingested were measured over time. Each amount of the diet ingested was calculated as the amount of energy ingested (kcal), given that 1 g of D-tagatose orally administered into the stomach is 2 kcal, and 1 g of Diet CE-2 is 3.45 kcal. As the statistical analyses, a one-way analysis of variance (unpaired) was performed on the results at the respective time points, and multiple comparisons were performed by Tukey's test among all the groups. […] Note that, in FIG. 5, * indicates p<0.05, and ** indicates p<0.01.

Experiment [4] concerns C57BL/6J male mice. Briefly: Portal vein active GLP-1, total GLP-1 and total GIP over time after oral administration to fasting mice (Example 1). The format is in vivo. The following applies: 1 g/kg oral. On the procedure:
As the experimental animal, C57BL/6J male mice (9-11 weeks old) were used. To the mice having fasted for 16 hours from 18:00 on the day before the experiment, D-psicose at 1 g/kg was orally administered into each stomach at 10:00 AM. The dose of the oral administration was 10 ml/kg. Before the D-psicose administration and 30 minutes and 60 minutes after the administration, the blood was collected from the portal vein under isoflurane anesthesia. Note that an anticoagulant (heparin (final concentration: 50 IU/ml)) and peptide degradation suppressors (aprotinin (final concentration: 500 KIU/ml) and vildagliptin (final concentration: 10 μM)) had been added into the sampling syringes in advance. The collected blood was cooled, centrifuged, and stored at −80° C. until the resulting blood plasma was analyzed. The quantitative analyses of active GLP-1, total GLP-1, and total GIP were conducted using ELISA kits (manufactured by Millipore Corporation. EGLP-35K, EZGLPIT-36K, and EZRMGIP-55K, respectively). In addition, as the statistical analyses, a one-way analysis of variance (paired) was performed, followed by Dunnett's test using a value before the D-psicose administration (0 min) as the control. […] Note that, in FIG. 2, * indicates p<0.05, and ** indicates p<0.01. Moreover, numerical values in bar graphs in FIG. 2 each indicate the number of experiments.

The subject of experiment [5] is murine large intestine-derived, Glucagon-like peptide-1 (GLP-1) producing cell line GLUTag. Briefly: GLP-1 secretion test in GLUTag cells (preliminary test). The format is cell-based. The following applies: 10 mM, 20 mM and 40 mM solutions, 60 minutes. The procedure: A murine large intestine-derived, Glucagon-like peptide-1 (GLP-1) producing cell line GLUTag was cultured in 10%-FBS containing Dulbecco's modified Eagle's medium at 37° C. in the presence of 5% CO2. The GLUTag cells were cultured in a 48-well plate for 2 or 3 days until subconfluence. Before each sample (D-psicose or an indigestible dextrin) was added, the wells were washed with a Hepes buffer (140 mM NaCl, 4.5 mM KCl, 20 mM Hepes, 1.2 mM CaCl2, 1.2 mM MgCl2, 10 mM D-glucose, 0.1% BSA, pH: 7.4). Then, 80 μl of a solution of the sample dissolved in the same buffer was added to the wells, and incubated at 37° C. for 60 minutes. After the supernatant was collected, the cells were precipitated by centrifugation (800×g, 5 minutes, 4° C.), and 70 μl of the supernatant was cryopreserved. The total GLP-1 in this supernatant was measured with commercially available “Enzyme immuno assay kit” (manufactured by Yanaihara Institute Inc.).

A further experiment relates to Sprague Dawley rat. Description: Blood glucose and total GLP-1 over time after oral administration to fasted rats (Example 5). The class given is in vivo. The following applies: 2 g/kg body weight oral, fasted SD rats, 0 to 240 minutes. On the procedure:
Before a sample was administered (0 minutes), the blood was collected from the tail vein of each Sprague Dawley rat (8 to 9 weeks old male) having fasted overnight. Using a feeding tube, each solution of deionized water (control group), D-psicose, an indigestible dextrin (DE10), and a dextrin (the product manufactured by Matsutani Chemical Industry Co., Ltd.: “Pinedex #2” (DE10)) was orally administered at 2 g/kg body weight (10 mL/kg body weight). Then, the blood was collected from the tail vein after 15 minutes, 30 minutes, 60 minutes, 90 minutes, 120 minutes, 150 minutes, 180 minutes, 210 minutes, and 240 minutes.
The blood was collected into a tube to which a DPP-IV inhibitor (manufactured by Millipore Corporation), aprotinin (manufactured by Wako Pure Chemical Industries, Ltd.), and heparin (manufactured by Nacalai Tesque, Inc.) had been added in advance. The blood plasma was collected by centrifugation, and cryopreserved at −80° C. The total GLP-1 concentration in the resulting blood plasma was measured with a commercially available ELISA kit (Multi Species GLP-1 Total ELISA manufactured by Millipore Corporation). The glucose concentration in the blood plasma was measured with Glucose CII-Test Wako (manufactured by Wako Pure Chemical Industries, Ltd.).

Setting [6] is: 30 to 60 minutes after administration vs 0 min.

As to `O=C[C@H](O)[C@@H](O)[C@H](O)[C@H](O)CO` [D-glucose, reference compound], in the experiment on C57BL/6J male mice [1] (1 g/kg oral), the “active GLP-1 concentration in the portal veins” value (“active GLP-1 concentration” for short) is “did not change at all” and the “total GIP in the portal veins” value was “significantly increased the GIP concentration”.
For `O=C(CO)[C@H](O)[C@H](O)[C@H](O)CO` [D-psicose], the “area under total GLP-1 blood concentration-time curve (AUC)” value with healthy subjects (single dose 5 g, 10 g or 15 g/200 ml, 15 to 180 minutes) is listed as “increased in a manner dependent on the amount of D-psicose ingested”. Also, the “single dose at which the effect of promoting the amount of total GLP-1 secreted into the blood was obtained” value in the experiment on healthy subjects (single oral ingestion) is reported as “at least 0.07 g/kg body weight”. The “amount of the diet ingested” value in the experiment with C57BL/6J male mice [2] (Ex-9 200 nmol/kg i.p. + D-psicose 1 g/kg oral, 30 minutes after administration) is recorded as “significantly smaller”; in the experiment on C57BL/6J male mice [2] (Ex-9 200 nmol/kg i.p. + D-psicose 1 g/kg oral, after 1 hour (to 6 hours) from administration) it was “not significantly different”; in the experiment with C57BL/6J male mice [2] (saline i.p. + D-psicose 1 g/kg oral, 30 minutes to 6 hours after administration), “significantly decreased”; with C57BL/6J male mice [3] (1 hour to 6 hours after administration), “significantly smaller”. The figures for the “active GLP-1 concentration” value with C57BL/6J male mice [1] (0.3 g/kg oral), in the experiment with C57BL/6J male mice [1] (1 g/kg oral) and in the experiment with C57BL/6J male mice [4] (setting [6]) were “tended to increase”, “significantly increased” and “increased”, respectively. Moreover, the “total GIP in the portal veins” value in the experiment with C57BL/6J male mice [1] (0.3 g/kg oral) and with C57BL/6J male mice [1] (1 g/kg oral) was “only the D-glucose administration group significantly increased the GIP concentration” in each case. The “total GLP-1 concentration in the portal veins” value in the experiment with C57BL/6J male mice [4] (setting [6]) was “increased”. The “GIP secretion (total GIP concentration in the portal veins)” value in the experiment with C57BL/6J male mice [4] (for 60 minutes after administration) is “did not influence the GIP secretion”. Moreover, the “GLP-1 secretion (total GLP-1 in supernatant)” value in experiment [5] is “merely tended to exhibit slight secretion promotion”. The blood sugar level result in the experiment on Sprague Dawley rat was “small variation”. Also, the “total GLP-1 concentration in the blood” value in the experiment on Sprague Dawley rat was “greatly increased”.
`O=C(CO)[C@@H](O)[C@@H](O)[C@H](O)CO` [D-tagatose, reference compound]: in the experiment on C57BL/6J male mice [1] (1 g/kg oral), the “active GLP-1 concentration” value is reported as “tended to increase” and the “total GIP in the portal veins” value is “only the D-glucose administration group significantly increased the GIP concentration”. The “amount of the diet ingested” value in the experiment with C57BL/6J male mice [3] (1 hour after administration) was “significantly smaller”. In addition, the “amount of the diet ingested” value in the experiment with C57BL/6J male mice [3] (2 hours and 6 hours after administration) is listed as “almost the same”.
For Exendin-9 [Ex9, reference compound], the “amount of the diet ingested” value with C57BL/6J male mice [2] (Ex-9 200 nmol/kg i.p. + saline oral, all time zones) is listed as “at the same levels”.

These data come from patent US20180214467A1, “GLP-1 SECRETAGOGUE” (EDUCATIONAL FOUNDATION JICHI MEDICAL UNIVERSITY, priority 2015, published 2018).
